Assays:
HCT116 cells = assay: Aurora inhibitors in combination with ABT-263, cell viability (CellTiter-GLO); assay type: cell-based, human; details: 1 μM ABT-263, 72 hours; MLN8054 at Aurora A-selective concentrations (<5 μM)
Description: 24 hours post-transfection, cells were treated with ABT-263 in dose response, and cell viability was determined 72 hours after the addition of ABT-263. […] MLN8054 (FIG. 9C) or AZD1152 (FIG. 9D) were tested in combination with DMSO or 1 μM ABT-263 in HCT116 cells. Cell viability was determined 72 hours after treatment. […] EJ1 (FIG. 9F) or HCT116 (FIG. 9G) cells were transfected with a luciferase siRNA or the same set of siRNAs against Bcl-2, Bcl-XL, or Mcl-1 siRNAs as in FIG. 9E. 24 hours post-transfection, cells were treated with different amounts of AZD1152. Cell viability was determined 72 hours after exposure to AZD1152. […] Cell viability was determined 72 hours post-transfection. In all figures, cell viability was expressed as the percentage of untransfected, DMSO-treated control cells. The red viability curve represents a synergistic combination.
(§1) Generally, cells were seeded at >90% viability (as determined by trypan blue exclusion) into 96-well plates overnight, treated with compounds or siRNAs for indicated duration, and the overall cell viability was determined by measuring luminescence.

[1] = system: tumor cell lines (D54MG, NCI-H460, A549, PC3, EJ1, HCT116, DLD1, SW620, 786-O); assay: Combination screen of VX-680, cell viability with Bliss additivism analysis; assay type: cell-based, human; details: VX-680 with ABT-263 in dose-response; viability 3 days after exposure
Description: Cell viability was determined 3 days after exposure to the combination regimens. Synergy or antagonism of drug combinations was determined using the Bliss additivism model of drug-drug interactions (See, Berenbaum, M. C., Cancer Res 35, 269-335 (1981)). The value in excess of Bliss additivism for each dose was determined for all combinations and defined as follows: >15=synergistic, 0-15=no interaction, <−15=antagonistic. These values are expressed in a heatmap using SPOTFIRE® (TIBCO®) data analysis software where synergy is indicated in red, no interaction in gray, and antagonism in blue. […] These values are not applicable for Bliss analysis and were excluded from the heatmap. Compounds tested in combination are shown at the right. The targets/mechanisms of action of each of these agents and the corresponding dose responses for the combination screen is summarized in Table A in EXAMPLE 40.
as §1
Combined response scores greater than 15 were considered synergistic. […]

Row | SMILES | synergy in combination with ABT-263 (cell viability) (HCT116 cells) | Bliss analysis of cell viability, combination with ABT-263 [1]
1 | O=C(O)c1ccc(Nc2ncc3c(n2)-c2ccc(Cl)cc2C(c2c(F)cccc2F)=NC3)cc1 [MLN8054] | no synergy | –
2 | Cc1cc(Nc2cc(N3CCN(C)CC3)nc(Sc3ccc(NC(=O)C4CC4)cc3)n2)[nH]n1 [VX-680, cyclopropane carboxylic acid of {4-[4-(4-methyl-piperazin-1-yl)-6-(5-methyl-2H-pyrazol-3-ylamino)-pyrimidin-2-ylsulphanyl]-phenyl}-amide] | – | synergistic (>15=synergistic)
